Measurements published in US10899755B2, “Benzothiazole compounds and uses thereof” (Incyte Corporation, priority 2018, dated 2021).

biological target: HPK1 (Homo sapiens, UniProt Q92918); test: HPK1 Kinase Binding Assay; settings: active HPK1 (SignalChem M23-11G), tracer 222, LanthaScreen Eu-Anti GST antibody, one hour incubation at 25° C.
Sequence (Q92918 whole entry, looked up): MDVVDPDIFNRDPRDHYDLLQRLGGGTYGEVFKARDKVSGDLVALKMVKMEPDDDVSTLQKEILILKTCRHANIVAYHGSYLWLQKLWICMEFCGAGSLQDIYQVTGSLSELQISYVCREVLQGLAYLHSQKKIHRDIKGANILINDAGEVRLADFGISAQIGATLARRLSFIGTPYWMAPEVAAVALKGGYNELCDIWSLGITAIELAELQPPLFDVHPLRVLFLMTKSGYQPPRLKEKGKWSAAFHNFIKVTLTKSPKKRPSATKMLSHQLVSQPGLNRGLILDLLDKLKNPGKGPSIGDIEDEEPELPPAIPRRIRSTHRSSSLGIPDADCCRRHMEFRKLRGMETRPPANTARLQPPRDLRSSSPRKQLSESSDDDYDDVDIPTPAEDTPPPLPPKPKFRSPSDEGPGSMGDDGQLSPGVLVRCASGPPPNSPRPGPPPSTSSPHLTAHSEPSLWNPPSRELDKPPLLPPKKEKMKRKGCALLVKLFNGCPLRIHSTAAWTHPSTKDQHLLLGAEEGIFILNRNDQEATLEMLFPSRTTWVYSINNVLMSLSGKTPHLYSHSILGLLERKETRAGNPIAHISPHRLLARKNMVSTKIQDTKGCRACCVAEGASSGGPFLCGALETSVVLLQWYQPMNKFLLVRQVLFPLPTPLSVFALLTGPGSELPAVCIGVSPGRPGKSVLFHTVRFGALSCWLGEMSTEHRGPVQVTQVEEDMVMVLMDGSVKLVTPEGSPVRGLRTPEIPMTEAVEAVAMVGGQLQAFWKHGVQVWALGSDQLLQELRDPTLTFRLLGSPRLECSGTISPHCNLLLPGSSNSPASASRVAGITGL
Protocol: A stock solution of 1 mM test compound was prepared in DMSO. The compound plate was prepared by 3-fold and 11-point serial dilutions. 0.1 μL of the compound in DMSO was transferred from the compound plate to the white 384 well polystyrene plates. The assay buffer contained 50 mM HEPES, pH 7.5, 0.01% Tween-20, 5 mM MgCl2, 0.01% BSA, and 5 mM DTT. 5 μL of 4 nM active HPK1 (SignalChem M23-11G) prepared in the buffer was added to the plate. The enzyme concentration given was based on the given stock concentration reported by the vender. […] After one hour incubation at 25° C., the plates were read on a PHERAstar FS plate reader (BMG Labtech). Ki values were determined.

| SMILES | Ki [µM] |
| --- | --- |
| Cc1nc2c(N3CC[C@@H](N)C3)c(NC(=O)c3ccnc(-c4c(F)cccc4F)n3)ccc2s1 [Example 1, (R)—N-(4-(3-Aminopyrrolidin-1-yl)-2-methylbenzo[d]thiazol-5-yl)-2-(2,6-difluorophenyl)pyrimidine-4-carboxamide] | < 0.1 |
| Cc1nc2c(N3CC[C@@H](N)C3)c(NC(=O)c3ccnc(-c4c(C)cccc4F)n3)ccc2s1 [Example 2, (R)—N-(4-(3-Aminopyrrolidin-1-yl)-2-methylbenzo[d]thiazol-5-yl)-2-(2-fluoro-6-methylphenyl)pyrimidine-4-carboxamide] | < 0.1 |
| CNCc1cc(C)c(-c2nccc(C(=O)Nc3ccc4sc(C)nc4c3N3CC[C@@H](N)C3)n2)c(F)c1 [Example 4, (R)—N-(4-(3-Aminopyrrolidin-1-yl)-2-methylbenzo[d]thiazol-5-yl)-2-(2-fluoro-6-methyl-4-((methylamino)methyl)phenyl)pyrimidine-4-carboxamide] | < 0.1 |
| COc1cccc(F)c1-c1nccc(C(=O)Nc2cc(Cl)c3sc(C)nc3c2N2CC[C@H](N)C2)n1 [Example 5, (S)—N-(4-(3-Aminopyrrolidin-1-yl)-7-chloro-2-methylbenzo[d]thiazol-5-yl)-2-(2-fluoro-6-methoxyphenyl)pyrimidine-4-carboxamide] | < 0.1 |
| COc1cccc(F)c1-c1nccc(C(=O)Nc2cc(Br)c3sc(C)nc3c2N2CC[C@H](N)C2)n1 [Example 6, (S)—N-(4-(3-Aminopyrrolidin-1-yl)-7-bromo-2-methylbenzo[d]thiazol-5-yl)-2-(2-fluoro-6-methoxyphenyl)pyrimidine-4-carboxamide] | < 0.1 |
| COc1cccc(F)c1-c1nccc(C(=O)Nc2cc(C)c3sc(C)nc3c2N2CC[C@H](N)C2)n1 [Example 7, (S)—N-(4-(3-Aminopyrrolidin-1-yl)-2,7-dimethylbenzo[d]thiazol-5-yl)-2-(2-fluoro-6-methoxyphenyl)pyrimidine-4-carboxamide] | < 0.1 |
| COc1cccc(F)c1-c1nccc(C(=O)Nc2cc(C#N)c3sc(C)nc3c2N2CC[C@H](N)C2)n1 [Example 8, (S)—N-(4-(3-Aminopyrrolidin-1-yl)-7-cyano-2-methylbenzo[d]thiazol-5-yl)-2-(2-fluoro-6-methoxyphenyl)pyrimidine-4-carboxamide] | < 0.1 |
| COCc1nc2c(N3CCC[C@H]3CN)c(NC(=O)c3ccnc(-c4c(F)cccc4OC)n3)ccc2s1 [Example 9, (S)—N-(4-(2-(Aminomethyl)pyrrolidin-1-yl)-2-(methoxymethyl)benzo[d]thiazol-5-yl)-2-(2-fluoro-6-methoxyphenyl)pyrimidine-4-carboxamide] | < 0.1 |
| COCCc1nc2c(N3CCC[C@H]3CN)c(NC(=O)c3ccnc(-c4c(F)cccc4OC)n3)ccc2s1 [Example 10, (S)—N-(4-(2-(Aminomethyl)pyrrolidin-1-yl)-2-(2-methoxyethyl)benzo[d]thiazol-5-yl)-2-(2-fluoro-6-methoxyphenyl)pyrimidine-4-carboxamide] | < 0.1 |
| COc1cccc(F)c1-c1nccc(C(=O)Nc2ccc3sc(C)nc3c2N2C[C@H](N)C[C@H]2CO)n1 [Example 11, N-(4-((2S,4R)-4-Amino-2-(hydroxymethyl)pyrrolidin-1-yl)-2-methylbenzo[d]thiazol-5-yl)-2-(2-fluoro-6-methoxyphenyl)pyrimidine-4-carboxamide] | < 0.1 |
| CCc1nc2c(N3C[C@@H](N)C[C@H]3CO)c(NC(=O)c3ccnc(-c4c(F)cccc4OC)n3)ccc2s1 [Example 12, N-(4-((2S,4S)-4-Amino-2-(hydroxymethyl)pyrrolidin-1-yl)-2-ethylbenzo[d]thiazol-5-yl)-2-(2-fluoro-6-methoxyphenyl)pyrimidine-4-carboxamide] | < 0.1 |
| COc1cccc(F)c1-c1nccc(C(=O)Nc2ccc3sc(C(C)C)nc3c2N2C[C@@H](N)C[C@H]2CO)n1 [Example 13, N-(4-((2S,4S)-4-Amino-2-(hydroxymethyl)pyrrolidin-1-yl)-2-isopropylbenzo[d]thiazol-5-yl)-2-(2-fluoro-6-methoxyphenyl)pyrimidine-4-carboxamide] | < 0.1 |

Results, then the compound that gave them:

| Ki [µM] | SMILES |
| --- | --- |
| 0.1 to 0.5 | COc1cccc(C(N)=O)c1-c1nccc(C(=O)Nc2ccc3sc(C)nc3c2N2C[C@H](N)C[C@H]2CO)n1 [Example 14, N-(4-((2S,4R)-4-Amino-2-(hydroxymethyl)pyrrolidin-1-yl)-2-methylbenzo[d]thiazol-5-yl)-2-(2-carbamoyl-6-methoxyphenyl)pyrimidine-4-carboxamide] |
| < 0.1 | COc1ccc(-c2cnn(C)c2)c(F)c1-c1nccc(C(=O)Nc2ccc3sc(C)nc3c2N2C[C@H](N)C[C@H]2CO)n1 [Example 15, N-(4-((2S,4R)-4-Amino-2-(hydroxymethyl)pyrrolidin-1-yl)-2-methylbenzo[d]thiazol-5-yl)-2-(2-fluoro-6-methoxy-3-(1-methyl-1H-pyrazol-4-yl)phenyl)pyrimidine-4-carboxamide] |
| < 0.1 | COc1ccc(F)c(F)c1-c1nccc(C(=O)Nc2ccc3sc(C)nc3c2N2C[C@H](N)C[C@H]2CO)n1 [Example 16, N-(4-((2S,4R)-4-Amino-2-(hydroxymethyl)pyrrolidin-1-yl)-2-methylbenzo[d]thiazol-5-yl)-2-(2,3-difluoro-6-methoxyphenyl)pyrimidine-4-carboxamide] |
| < 0.1 | [2H]C([2H])([2H])Oc1ccc(C#N)c(F)c1-c1nccc(C(=O)Nc2ccc3sc(C)nc3c2N2C[C@H](N)C[C@H]2CO)n1 [Example 17, N-(4-((2S,4R)-4-Amino-2-(hydroxymethyl)pyrrolidin-1-yl)-2-methylbenzo[d]thiazol-5-yl)-2-(3-cyano-2-fluoro-6-(methoxy-d3)phenyl)pyrimidine-4-carboxamide] |
| < 0.1 | COc1cccc(F)c1-c1nccc(C(=O)Nc2ccc3sc(C)nc3c2N2C[C@H](NC(C)C)C[C@H]2CO)n1 [Example 18, 2-(2-Fluoro-6-methoxyphenyl)-N-(4((2S,4R)-2-(hydroxymethyl)-4-(isopropylamino)pyrrolidin-1-yl)-2-methylbenzo[d]thiazol-5-yl)pyrimidine-4-carboxamide] |
| < 0.1 | COc1cccc(F)c1-c1nccc(C(=O)Nc2ccc3sc(C)nc3c2N2C[C@H](NC3CCOCC3)C[C@H]2CO)n1 [Example 19, 2-(2-Fluoro-6-methoxyphenyl)-N-(4((2S,4R)-2-(hydroxymethyl)-4-(tetrahydro-2H-pyran-4-ylamino)pyrrolidin-1-yl)-2-methylbenzo[d]thiazol-5-yl)pyrimidine-4-carboxamide] |
| < 0.1 | COc1cccc(F)c1-c1nccc(C(=O)Nc2ccc3sc(C)nc3c2N2C[C@H](NC(C)=O)C[C@H]2CO)n1 [Example 20, N-(4-((2S,4R)-4-Acetamido-2-(hydroxymethyl)pyrrolidin-1-yl)-2-methylbenzo[d]thiazol-5-yl)-2-(2-fluoro-6-methoxyphenyl)pyrimidine-4-carboxamide] |
| < 0.1 | COc1cccc(F)c1-c1nccc(C(=O)Nc2ccc3sc(C)nc3c2N2C[C@H](NS(C)(=O)=O)C[C@H]2CO)n1 [Example 21, 2-(2-Fluoro-6-methoxyphenyl)-N-(4((2S,4R)-2-(hydroxymethyl)-4-(methylsulfonamido)pyrrolidin-1-yl)-2-methylbenzo[d]thiazol-5-yl)pyrimidine-4-carboxamide] |
| < 0.1 | COc1cccc(F)c1-c1nccc(C(=O)Nc2ccc3sc(C)nc3c2N2C[C@H]3C[C@@H]2CO3)n1 [Example 22, N-(4-((1R,4R)-2-Oxa-5-azabicyclo[2.2.1]heptan-5-yl)-2-methylbenzo[d]thiazol-5-yl)-2-(2-fluoro-6-methoxyphenyl)pyrimidine-4-carboxamide] |
| < 0.1 | COc1cccc(F)c1-c1nccc(C(=O)Nc2ccc3sc(C)nc3c2N2C[C@@H](N)C[C@H]2CO)n1 [Example 23, N-(4-((2S,4S)-4-amino-2-(hydroxymethyl)pyrrolidin-1-yl)-2-methylbenzo[d]thiazol-5-yl)-2-(2-fluoro-6-methoxyphenyl)pyrimidine-4-carboxamide] |
| < 0.1 | COc1cccc(F)c1-c1nccc(C(=O)Nc2ccc3sc(C)nc3c2N(C)CC2CCN(C)C2)n1 (centres unmarked) [Example 24, 2-(2-Fluoro-6-methoxyphenyl)-N-(2-methyl-4-(methyl((1-methylpyrrolidin-3-yl)methyl)amino)benzo[d]thiazol-5-yl)pyrimidine-4-carboxamide] |
| < 0.1 | COc1cccc(F)c1-c1nccc(C(=O)Nc2ccc3sc(C)nc3c2N2C[C@H]3C[C@@H]2CN3C(=O)N2CCOCC2)n1 [Example 25, 2-(2-Fluoro-6-methoxyphenyl)-N-(2-methyl-4((1R,4R)-5-(morpholine-4-carbonyl)-2,5-diazabicyclo[2.2.1]heptan-2-yl)benzo[d]thiazol-5-yl)pyrimidine-4-carboxamide] |
| < 0.1 | COc1cccc(F)c1-c1nccc(C(=O)Nc2ccc3sc(C)nc3c2N2CCOC[C@@H]2CN)n1 [Example 26, (S)—N-(4-(3-(aminomethyl)morpholino)-2-methylbenzo[d]thiazol-5-yl)-2-(2-fluoro-6-methoxyphenyl)pyrimidine-4-carboxamide] |
| < 0.1 | COc1cccc(F)c1-c1nccc(C(=O)Nc2ccc3sc(C)nc3c2N(C)[C@@H]2CCCNC2)n1 [Example 27] |
| < 0.1 | COc1cccc(F)c1-c1nccc(C(=O)Nc2ccc3sc(C)nc3c2N2CCC3CCNCC32)n1 (centres unmarked) [Example 28, 2-(2-Fluoro-6-methoxyphenyl)-N-(2-methyl-4-(octahydro-1H-pyrrolo[2,3-c]pyridin-1-yl)benzo[d]thiazol-5-yl)pyrimidine-4-carboxamide] |
| < 0.1 | COc1cccc(F)c1-c1nccc(C(=O)Nc2ccc3sc(C)nc3c2N2CCC(c3ccccn3)C2)n1 (centres unmarked) [Example 29, 2-(2-Fluoro-6-methoxyphenyl)-N-(2-methyl-4-(3-(pyridin-2-yl)pyrrolidin-1-yl)benzo[d]thiazol-5-yl)pyrimidine-4-carboxamide] |
| < 0.1 | COc1cccc(F)c1-c1nccc(C(=O)Nc2ccc3sc(C)nc3c2N2CC(F)(F)C[C@H]2CO)n1 [Example 30, (S)—N-(4-(4,4-Difluoro-2-(hydroxymethyl)pyrrolidin-1-yl)-2-methylbenzo[d]thiazol-5-yl)-2-(2-fluoro-6-methoxyphenyl)pyrimidine-4-carboxamide] |
